The target of this assay is T1, SaCas9 (Staphylococcus aureus, UniProt J7RUA5).
T1 sequence (J7RUA5 1-1053): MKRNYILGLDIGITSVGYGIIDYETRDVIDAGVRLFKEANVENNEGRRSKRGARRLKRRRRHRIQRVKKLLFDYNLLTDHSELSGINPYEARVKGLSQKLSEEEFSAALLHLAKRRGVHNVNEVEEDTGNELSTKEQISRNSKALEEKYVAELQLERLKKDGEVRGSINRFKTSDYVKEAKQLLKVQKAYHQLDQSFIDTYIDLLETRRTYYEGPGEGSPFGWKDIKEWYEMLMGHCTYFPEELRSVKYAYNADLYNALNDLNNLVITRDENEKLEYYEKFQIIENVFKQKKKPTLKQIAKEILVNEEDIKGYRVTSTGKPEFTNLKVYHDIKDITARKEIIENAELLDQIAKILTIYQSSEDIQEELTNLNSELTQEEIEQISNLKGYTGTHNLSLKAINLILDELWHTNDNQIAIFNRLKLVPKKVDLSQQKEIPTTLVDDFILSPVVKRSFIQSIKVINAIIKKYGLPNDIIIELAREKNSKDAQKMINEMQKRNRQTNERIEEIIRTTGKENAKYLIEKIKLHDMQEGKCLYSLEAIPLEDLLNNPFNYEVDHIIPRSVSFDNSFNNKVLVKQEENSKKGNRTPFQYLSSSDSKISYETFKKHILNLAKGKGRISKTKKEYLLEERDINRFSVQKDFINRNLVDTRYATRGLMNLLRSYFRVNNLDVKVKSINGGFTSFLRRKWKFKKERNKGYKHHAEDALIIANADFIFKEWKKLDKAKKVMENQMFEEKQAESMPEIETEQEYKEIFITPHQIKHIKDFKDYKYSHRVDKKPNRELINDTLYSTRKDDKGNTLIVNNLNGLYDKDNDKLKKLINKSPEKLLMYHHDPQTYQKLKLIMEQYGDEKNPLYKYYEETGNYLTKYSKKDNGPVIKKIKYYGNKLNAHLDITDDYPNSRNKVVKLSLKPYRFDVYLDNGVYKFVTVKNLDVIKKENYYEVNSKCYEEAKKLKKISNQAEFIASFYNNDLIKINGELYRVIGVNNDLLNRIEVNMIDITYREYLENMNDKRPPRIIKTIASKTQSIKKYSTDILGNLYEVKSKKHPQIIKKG
Nature of the assay: Strand displacement assay, SaCas9 primary screen. The following applies: for Auto Zscore Rep 1 / Auto Zscore Rep 2 / Normalized Zscore Rep 1 / Normalized Zscore Rep 2: SaCas9 primary screen; for Auto Zscore Rep 1 / Normalized Zscore Rep 1: replicate 1; for Auto Zscore Rep 2 / Normalized Zscore Rep 2: replicate 2; for Normalized Zscore Rep 1 / Normalized Zscore Rep 2: weaker potential hits; for 3 sigma Hit: flag 1 = hit at 3 sigma; for 5 sigma Hit: flag 1 = hit at 5 sigma. In kind it is biochemical. The gist of the method:
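Cas9 RNP (1:1.2 protein:gRNA) pre-formed in 20 mM Tris-HCl pH 7.5, 100 mM KCl, 5 mM MgCl2, used at 10 nM (2× stock) with Alexa-Fluor 647 substrate/quencher at 1 nM/5 nM (2× stock). Reaction ran 2.5 h at 37°C; strand displacement read as fluorescence. Hits called by Z-score: 3–5σ weak, >5σ strong.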

Here are results for 20 molecules from US20240115557A1, “INHIBITORS OF RNA-GUIDED NUCLEASES AND USES THEREOF” (The Brigham and Women's Hospital, Inc., priority 2022, published 2024).

In the case of `COc1ccc(OC)c(S(=O)(=O)Nc2cnc(N3CCCC3)c(C(=O)O)c2)c1` [Cpd F293-0436], the “Auto Zscore Rep 1” value is listed as −1.371, the “Auto Zscore Rep 2” value stood at 1.264, the “Normalized Zscore Rep 1” value was found to be 0.1977 and the “Normalized Zscore Rep 2” value was 0.2223. Also, the “3 sigma Hit” value worked out at 1.
With `O=C(O)c1cc(NS(=O)(=O)c2ccc3c(c2)CCCC3)cnc1N1CCCC1` [Cpd F293-0441], the “Auto Zscore Rep 1” value is 1.399, the “Auto Zscore Rep 2” value came to 1.863, the “Normalized Zscore Rep 1” value is listed as 0.3305 and the “Normalized Zscore Rep 2” value was determined as 0.3044. The “3 sigma Hit” value is reported as 1 and the “5 sigma Hit” value was 1.
For `Cc1cc(C)c(S(=O)(=O)Nc2cnc(N3CCCC3)c(C(=O)O)c2)cc1C` [Cpd F293-0458], the “Auto Zscore Rep 1” value turned out to be 1.794, the “Auto Zscore Rep 2” value turned out to be 2.846, the “Normalized Zscore Rep 1” value amounted to 0.4509 and the “Normalized Zscore Rep 2” value is given as 0.429. Further, the “3 sigma Hit” value came out at 1 and the “5 sigma Hit” value was found to be 1.
On to `CCN(CCN(C)C)c1ncc(NS(=O)(=O)c2cc(C)c(C)cc2C)cc1C(=O)O` [Cpd F293-0515], for which the “Auto Zscore Rep 1” value came to 2.129, the “Auto Zscore Rep 2” value was 2.544, the “Normalized Zscore Rep 1” value is on record as 0.2953 and the “Normalized Zscore Rep 2” value was 0.3056. The “3 sigma Hit” value stood at 1 and the “5 sigma Hit” value amounted to 1.
With `CCCCN(CC)c1ncc(NS(=O)(=O)CC)cc1C(=O)O` [Cpd F293-0526], the “Auto Zscore Rep 1” value is reported as 0.7951, the “Auto Zscore Rep 2” value is given as −0.08392, the “Normalized Zscore Rep 1” value was 0.179 and the “Normalized Zscore Rep 2” value is given as 0.186. In addition, the “3 sigma Hit” value worked out at 1.
For `CCCCN(CC)c1ncc(NS(C)(=O)=O)cc1C(=O)O` [Cpd F293-0529], the “Auto Zscore Rep 1” value was determined as 0.1547, the “Auto Zscore Rep 2” value was −0.2374, the “Normalized Zscore Rep 1” value is 0.1815 and the “Normalized Zscore Rep 2” value came out at 0.1895. Moreover, the “3 sigma Hit” value is 1.
`CCS(=O)(=O)Nc1cnc(N(CC(C)C)CC(C)C)c(C(=O)O)c1` [Cpd F293-0563]: the “Auto Zscore Rep 1” value was found to be 1.978, the “Auto Zscore Rep 2” value is on record as 2.223, the “Normalized Zscore Rep 1” value is 0.2792 and the “Normalized Zscore Rep 2” value came out at 0.3121. Further, the “3 sigma Hit” value worked out at 1 and the “5 sigma Hit” value is reported as 1.
For `Cc1cc(C)c(S(=O)(=O)Nc2cnc(N(CC(C)C)CC(C)C)c(C(=O)O)c2)cc1C` [Cpd F293-0589], the “Auto Zscore Rep 1” value is listed as 1.656, the “Auto Zscore Rep 2” value is listed as 0.2997, the “Normalized Zscore Rep 1” value stood at 0.335 and the “Normalized Zscore Rep 2” value came to 0.2929. In addition, the “3 sigma Hit” value was 1 and the “5 sigma Hit” value is given as 1.
Regarding `CCN(CC)c1ncc(NS(=O)(=O)c2cc(C)c(C)cc2C)cc1C(=O)O` [Cpd F293-0740], the “Auto Zscore Rep 1” value worked out at 0.2771, the “Auto Zscore Rep 2” value was −0.1319, the “Normalized Zscore Rep 1” value stood at 0.2333 and the “Normalized Zscore Rep 2” value was 0.2114. The “3 sigma Hit” value is 1 and the “5 sigma Hit” value came out at 1.
With `O=C(O)c1cc(NS(=O)(=O)c2cc(F)ccc2F)cnc1N1CCOCC1` [Cpd F293-0775], the “Auto Zscore Rep 1” value was −0.9384, the “Auto Zscore Rep 2” value worked out at 0.6834, the “Normalized Zscore Rep 1” value turned out to be 0.1939 and the “Normalized Zscore Rep 2” value was 0.1646. In addition, the “3 sigma Hit” value stood at 1.
For `CN(C)c1ncc(NS(=O)(=O)c2cc(F)ccc2F)cc1C(=O)O` [Cpd F293-0814], the “Auto Zscore Rep 1” value is given as 2.553, the “Auto Zscore Rep 2” value stood at 2.947, the “Normalized Zscore Rep 1” value turned out to be 0.2358 and the “Normalized Zscore Rep 2” value is listed as 0.2376. Further, the “3 sigma Hit” value is recorded as 1 and the “5 sigma Hit” value is reported as 1.
With `CN(C)c1ncc(NS(=O)(=O)c2ccc(F)c(F)c2)cc1C(=O)O` [Cpd F293-0815], the “Auto Zscore Rep 1” value is listed as 1.676, the “Auto Zscore Rep 2” value stood at 1.235, the “Normalized Zscore Rep 1” value was 0.2087 and the “Normalized Zscore Rep 2” value is given as 0.159. Further, the “3 sigma Hit” value stood at 1.
For the molecule `CCS(=O)(=O)Nc1cnc(N(C)CCCc2c(C)nn(C)c2C)c(C(=O)O)c1` [Cpd F293-0908], the “Auto Zscore Rep 1” value is −0.5672, the “Auto Zscore Rep 2” value stood at 0.4148, the “Normalized Zscore Rep 1” value amounted to 0.2527 and the “Normalized Zscore Rep 2” value amounted to 0.2772. For the same molecule, the “3 sigma Hit” value is 1 and the “5 sigma Hit” value is 1.
With `CCN(Cc1ccccc1)c1ccc(NS(=O)(=O)c2c(C)cc(C)cc2C)cc1C(=O)O` [Cpd F294-0002], the “Auto Zscore Rep 1” value is −0.1185, the “Auto Zscore Rep 2” value was 0.01199, the “Normalized Zscore Rep 1” value came out at 0.2241 and the “Normalized Zscore Rep 2” value is reported as 0.205. The “3 sigma Hit” value turned out to be 1 and the “5 sigma Hit” value was 1.
On to `CCN(Cc1ccccc1)c1ccc(NS(=O)(=O)c2ccccc2)cc1C(=O)O` [Cpd F294-0004], for which the “Auto Zscore Rep 1” value was −1.138, the “Auto Zscore Rep 2” value is on record as −1.139, the “Normalized Zscore Rep 1” value is given as 0.2186 and the “Normalized Zscore Rep 2” value was determined as 0.1863. Further, the “3 sigma Hit” value came out at 1.
In the case of `CCN(Cc1ccccc1)c1ccc(NS(=O)(=O)CC)cc1C(=O)O` [Cpd F294-0006], the “Auto Zscore Rep 1” value is −0.2858, the “Auto Zscore Rep 2” value is −0.7265, the “Normalized Zscore Rep 1” value stood at 0.1668 and the “Normalized Zscore Rep 2” value came out at 0.1791. The “3 sigma Hit” value stood at 1.
For the molecule `CCN(Cc1ccccc1)c1ccc(NS(C)(=O)=O)cc1C(=O)O` [Cpd F294-0009], the “Auto Zscore Rep 1” value is given as 0.01198, the “Auto Zscore Rep 2” value is recorded as 0.247, the “Normalized Zscore Rep 1” value came out at 0.1769 and the “Normalized Zscore Rep 2” value is recorded as 0.155. Besides, the “3 sigma Hit” value turned out to be 1.
On the same counts, the results for `CCN(Cc1ccccc1)c1ccc(NS(=O)(=O)c2cc(C)ccc2C)cc1C(=O)O` [Cpd F294-0010] are −0.2001, 1.494, 0.1692, 0.1845 and 1.
On the same counts, the results for `CCN(Cc1ccccc1)c1ccc(NS(=O)(=O)c2cc(OC)ccc2OC)cc1C(=O)O` [Cpd F294-0012] are −1.677, −1.264, 0.1772, 0.1434 and 1.
In the case of `O=C(O)c1cc(NS(=O)(=O)N2CCOCC2)ccc1N1CCCC(CN2CCCC2)C1` (centres unmarked) [Cpd F294-1002], the “Auto Zscore Rep 1” value is −0.7997, the “Auto Zscore Rep 2” value is listed as −0.2997, the “Normalized Zscore Rep 1” value came to 0.2452 and the “Normalized Zscore Rep 2” value came out at 0.1681. The “3 sigma Hit” value was found to be 1 and the “5 sigma Hit” value turned out to be 1.
